# Entries after “also recorded” stand apart in the source; their conditions may differ. Where two headings read alike, the source gives them in different places.
# Legend:
# 17(alpha)-hydroxylase = molecular target: T1, 17(alpha)-hydroxylase (Rattus norvegicus, UniProt P11715); experiment: 17(alpha)-hydroxylase assay, rat testicular microsomes (Example 1, Table 1); type: biochemical
# T1 construct: approximately 1 mg rat testicular microsomal protein in 450 microliters phosphate buffer; from tissue; host or cells: testes of adult male Sprague-Dawley rats (Charles River), microsomal fraction
# T1 sequence (P11715 1-507): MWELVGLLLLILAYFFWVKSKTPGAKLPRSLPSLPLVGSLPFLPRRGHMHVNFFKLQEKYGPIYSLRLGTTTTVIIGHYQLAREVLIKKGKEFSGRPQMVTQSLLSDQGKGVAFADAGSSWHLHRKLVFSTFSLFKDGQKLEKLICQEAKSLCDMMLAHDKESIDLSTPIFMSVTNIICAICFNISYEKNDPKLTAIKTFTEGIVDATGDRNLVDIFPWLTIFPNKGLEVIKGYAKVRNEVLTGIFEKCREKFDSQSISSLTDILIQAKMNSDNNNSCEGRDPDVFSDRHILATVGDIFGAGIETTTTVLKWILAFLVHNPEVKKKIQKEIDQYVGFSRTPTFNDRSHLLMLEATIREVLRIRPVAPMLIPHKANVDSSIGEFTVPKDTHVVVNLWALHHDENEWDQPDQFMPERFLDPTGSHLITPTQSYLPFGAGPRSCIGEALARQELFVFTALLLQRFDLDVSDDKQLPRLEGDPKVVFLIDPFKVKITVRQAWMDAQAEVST
# Method: (§1) Testes were obtained from 220°-250g adult male Sprague-Dawley rats (Charles River), immediately frozen in liquid nitrogen and stored at -70° C. After thawing in the ice bath, the testes were minced and homogenized in 0.25M sucrose (1:4 w/v), then centrifuged at 12,000×gfor 30 min and the resulting supernatant centrifuged at 105,000×g for one hour. The supernatant was then decanted and the pellet containing the microsomes was resuspended in 0.1M sodium phosphate buffer (pH 7.4) (2.5g wet weight of tissue/ 2 ml buffer). All the above procedures were performed at 4C. The microsomal fraction was stored at -70C. Just before use, microsomes were diluted to the concentration of 1.25 g wet weight of tissue/10 ml phosphate buffer.
# (§2) The incubation was stopped by cooling the mixture in an ice bath and adding 2 ml ether to each incubation tube. The ^3 H-labelled steriods (progesterone P4; 17(alpha)-hydroxyprogesterone 170HP4, androstenedione A and testosterone T, 8,000dpm each) were added as recovery markers and the steroids were extracted with ether (2 ml×3). The ether was evaporated with air. Steroid carriers (P4, 17-0HP4, A and T, 4 micrograms each) were added to the extracts which were then applied to thin layer chromatography (TLC) plates for separation of the steroids. After development for 1.5 hours in hexanes/ethyl acetate, 65:35(v/v), the steroids were located by UV (254 nm) absorption, scraped off and eluted into scintillation vials with ether. After evaporating the ether, the steroids were dissolved in counting cocktail and the radioactivity measured. The recovery of steroids calculated from the ^3 H-labelled markers was between 80 to 90 percent and the enzyme activity was determined from the percentage conversion of [4-C^14 ]-progesterone to 170HP4, A and T.
# (§3) The purity of each steroid on the TLC was confirmed by two methods. First, the percent conversion of each compound in a half amount of the extract from one incubation were compared after separation of TLC and HPLC. The HPLC procedure has been described in detail previously. The solvent system used was methanol/acetonitrile/water (15.6:36.4:48). The flow rate was 1 ml/min and pressure 2200 psi, the retention time of these steroids was P4 38.3 min, 170HP4 15.93 min, A 14.33 min, and T 11.43 min, respectively. Secondly, after the first separation by TLC in solvent system A (hexane/ethyl acetate 65:35), the eluted steroids were chromatographed in solvent system B (chloroform/acetonitrile, 85:15).
# ^1 Incubation of [4^14 Cprogesterone (various concentration,
# microsome (approximately 1 mg protein) and NADPH generating system was
# carried out at 37 C. under O2 for 30 min. The apparent Km for this
# C17,20-lyase = molecular target: T2, C17,20-lyase (Rattus norvegicus, UniProt P11715); experiment: C17,20-lyase assay, rat testicular microsomes (Example 1, Table 1); type: biochemical
# T2 construct: approximately 1 mg rat testicular microsomal protein in 450 microliters phosphate buffer; from tissue; host or cells: testes of adult male Sprague-Dawley rats (Charles River), microsomal fraction
# T2 sequence (P11715 1-507): T1 sequence (P11715 1-507)
# Method: as §1
# (§4) C^17,20 -Lyase: The procedure for measurement of the C17,20 -lyase was similar to the procedure for the 17(alpha)-hydroxylase, except that the substrate was 17(alpha)-hydroxy-[[1,2,6,7-^3 H]-progesterone (various concentration, 10^5 dpm) and recovery markers were [4-^14 C]-labelled steroids. Carrier steroids (170HP4, A and T) were also added to locate the product areas on the TLC plates. The enzyme activity was determined from the percent conversion of 17(alpha)-hydroxy-[1,2,6,7-3H]-progesterone to A and T.
# as §3, with “The flow rate was 1 ml/min and pressure 2200 psi, the retention time of these steroids was P4 38.3 min, 170HP4 15.93 min, A 14.33 min, and T 11.43 min, respectively.” left out
# [1] = molecular target: T3, 17(alpha)-hydroxylase/C17,20-lyase (Rattus norvegicus, UniProt P11715); experiment: Hydroxylase/lyase assay, rat testis homogenates, [21-14C]-progesterone side-chain cleavage (Examples 2 and 3, Table 2); type: biochemical; details: progesterone 40 microM, 45 min
# T3 construct: with rat testis homogenates (2.7 mg protein in 0.5 ml phosphate buffer); from tissue; host or cells: rat testis homogenate
# T3 sequence (P11715 1-507): T1 sequence (P11715 1-507)
# Method: Compounds I-16 and I-25 were synthesized according to known procedures. The compounds were then assayed for their ability to inhibit the 17(alpha)-hydroxylase/C17,20 -lyase enzyme and the 5(alpha)-reductaseenzyme. The hydroxylase/lyase assay was carried out by incubation of [21-^14 C]-progesterone (40 microM, 70,000 dpm) and candidate inhibitors with rat testis homogenates (2.7 mg protein in 0.5 ml phosphate buffer), NADPH generating system under oxygen for 45 minutes. The enzyme activity was measured according to the conversion of progesterone to the product of C17,20 -side chain cleavage ([2-^14 C]-acetic acid). […] The results were based on the TLC separation.
# [2] = in vivo; cited from earlier work
# 5(alpha)-reductase = molecular target: T4, 5(alpha)-reductase (Homo sapiens, UniProt P31213); experiment: 5(alpha)-reductase assay, human prostatic (BPH) tissue homogenates (Example 1, Table 1); details: result in words
# T4 sequence (P31213 1-254): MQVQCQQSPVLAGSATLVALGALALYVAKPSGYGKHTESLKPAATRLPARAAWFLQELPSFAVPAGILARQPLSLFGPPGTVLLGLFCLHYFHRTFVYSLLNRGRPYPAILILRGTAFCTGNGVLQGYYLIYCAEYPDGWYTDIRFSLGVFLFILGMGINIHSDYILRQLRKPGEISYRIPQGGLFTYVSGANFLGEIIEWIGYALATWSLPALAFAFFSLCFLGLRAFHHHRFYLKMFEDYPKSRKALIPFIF
# Method: Tissue was homogenized in 0.1M phosphate buffer (60 mg wet weight of tissue/ ml buffer, pH 7.4) at 4C and the homogenates were diluted with an equal volume of buffer before use.
# 5(alpha)-reductase: [7-^3 H]testosterone (10^6 dpm) was incubated for 30 minutes at 37° C. with the NADPH generating system, homogenate of human prostatic tissue (30mg wet weight of tissue/1 ml buffer) and the candidate inhibitors at concentrations ranging from 0.1-10uM. […] The steroids were extracted with ether and the extracts chromatographed on TLC (chloroform: ether 95:5). […] The steroids were scraped from the plate and radioactivity measured.
# DHT in the prostate = experiment: In vivo study: DHT concentration in the prostate of male rats (RIA); design: species or system rat (male Sprague-Dawley); details: 50 mg/kg/day sc, 21 days
# Method: (§5) A group of 8 adult male Sprague-Dawley rats were injected sc with vehicle (0.3% hydroxypropyl cellulose, HPC) and a group of 8 rats were injected sc with a suspension of the compound I-23 in HPC (50 mg/kg body weight/day) every 24 hours for 21 days. The rats were autopsied at the last day, the ventral prostates and blood samples were collected. The prostate tissues were stored at -70° C. and the sera were separated first by centrifugation at 2,200 rpm, then stored at -15° C. until assayed. The DHT levels in the rat prostates were measured by radioimmunoassay (RIA) using testosterone/dihydrotestosterone RIA kit from Amersham Co. (Illinois). The testosterone levels in the rat sera were measured by using the [^125 I]-testosterone diagnostic kits (ICN Biochemics Inc.). The results obtained were analyzed by using Student t test.
# (§6) The 4-pregnen-3-one-20(beta)-aldoxime was also studied for its effect on male rats in vivo. Male rats were daily treated with the compound at the dose of 50 mg/kg body weight injected subcutaneously for 21 days. […] The serum testosterone of these rats was measured as well.
# serum testosterone = experiment: In vivo study: serum testosterone of male rats (RIA); design: species or system rat (male Sprague-Dawley); details: 50 mg/kg/day sc, 21 days
# Method: as §5, §6
# [3] = molecular target: T5, rat testicular 17(alpha)-hydroxylase/C17,20-lyase (Rattus norvegicus, UniProt P11715); experiment: Hydroxylase/lyase assay, rat testicular homogenates, [21-14C]progesterone (Example 4, Table 3); type: biochemical; details: 0.75 h
# T5 construct: rat testicular homogenates (prepared from 220-250g adult male Sprague-Dawley rats); from tissue; host or cells: testes of adult male Sprague-Dawley rats, homogenate
# T5 sequence (P11715 1-507): T1 sequence (P11715 1-507)
# Method: The assay was performed by incubation of rat testicular homogenates (prepared from 220-250g adult male Sprague-Dawley rats, approx. 3.5 mg protein) with [21-^14 C]progesterone (40uM, 5×10^4 dpm), NADPH generating system and candidate inhibitors in phosphate buffer (pH 7.4, total volume 500ul) under oxygen for 45 min at 37° C. Two ml of choloroform was added to each tube to stop the reaction. The steriods were extracted with chloroform and the aqueous phase was treated with charcoal. The side chain cleavage product [2-^14 C]acetic acid in the aqueous phase was mixed with 3a70B counting cocktail and counted on the Rack Beta II liquid scintillation counter. The enzyme activity was determined from the conversion of progesterone P4 to [2-^14 C]acetic acid.
# [4] = molecular target: T6, 17(alpha)-hydroxylase/17,20-lyase enzyme (Rattus norvegicus, UniProt P11715); experiment: 17(alpha)-hydroxylase/17,20-lyase inhibition, rat testicular microsomes (Example 1); type: biochemical; details: according to Ki values, result in words; listed as 4-pregnen-3-one-20(beta)-aldoxime
# T6 sequence (P11715 1-507): T1 sequence (P11715 1-507)
# Method: as §1
# as §2, with “After development for 1.5 hours in hexanes/ethyl acetate, 65:35(v/v), the steroids were located by UV (254 nm) absorption, scraped off and eluted into scintillation vials with ether.” left out
# as §4, with “Carrier steroids (170HP4, A and T) were also added to locate the product areas on the TLC plates.” left out
"Ki (17(alpha)-hydroxylase; rat testicular microsomes, progesterone substrate, 30 min, 37 C, N.I. = no inhibition, read-out: 17(alpha)-hydroxylase Ki) [µM]","Ki (C17,20-lyase; rat testicular microsomes, 17(alpha)-hydroxyprogesterone substrate, 30 min, 37 C, N.I. = no inhibition, read-out: C17,20-lyase Ki) [µM]","% Inhibition of 17(alpha)hydroxylase/lyase, [I] = 10 × [S] ([1]; [I] = 10 × [S]) [%]","% Inhibition of 17(alpha)hydroxylase/lyase, [I] = [S] ([1]; [I] = [S]) [%]",inhibition of 5(alpha)-reductase in the human prostate (5(alpha)-reductase),SMILES,"cortisol production and side-effects, in words [2]",Ki (17(alpha)-hydroxylase) [µM],type of inhibition of the hydroxylase (17(alpha)-hydroxylase; Lineweaver-Burk),"Ki (C17,20-lyase) [µM]","potency versus Ketoconazole, C17,20-lyase (C17,20-lyase; FIG. 2, result in words)","type of inhibition of the lyase (C17,20-lyase; Lineweaver-Burk)","potency relative to ketoconazole for rat testicular C17,20-lyase (C17,20-lyase; according to the Ki values)","prostatic DHT levels, effect in words (DHT in the prostate)","serum testosterone (serum testosterone; n=8, control 4.03±0.64, P<0.005) [ng/ml serum]","plasma testosterone concentrations, effect in words (serum testosterone; rats)","inhibition at 400 µM ([3]; pH 7.4, read-out: Inhibition of 17(alpha)-hydroxylase/C17,20-lyase (%), [I] = 10 × [S]) [%]","inhibition at 40 µM ([3]; pH 7.4, read-out: Inhibition of 17(alpha)-hydroxylase/C17,20-lyase (%), [I] = [S]) [%]",selectivity lyase versus hydroxylase [4]
39.5,3.6,65.80,31.53,did not inhibit,"CC(=O)N1CCN(c2ccc(OCC3COC(Cn4ccnc4)(c4ccc(Cl)cc4Cl)O3)cc2)CC1 (stereo not drawn) [Ketoconazole, reference compound]",reduces cortisol production and has a number of side-effects,–,–,–,–,–,–,–,–,–,–,–,–
–,–,–,–,–,"C[C@H](C=NO)[C@H]1CC[C@H]2[C@@H]3CCC4=CC(=O)CC[C@]4(C)[C@H]3CC[C@]12C [Compound I-23, 4-pregnen-3-oxo-20(beta)-carboxaldehyde oxime]",–,31.2,competitive inhibition,1.07,more potent than Ketoconazole,competitive inhibition,approximately 3.5 fold,effective in reducing,1.60±0.37,effective in reducing plasma testosterone concentrations,84,39.3,more specific inhibitor for the lyase than for the hydroxylase; also recorded: preferentially inhibited the lyase rather than the hydroxylase step

# — patent publication US5264427A, “20-substituted pregnene derivatives and their use as androgen synthesis inhibitors” (priority 1992, dated 1993)
